Data as given in the CheMixHub ionic liquid set.
Several values for one entry are separate records, joined by “and”; a condition that tells them apart may be missing. Equal values may be shown once.

Experiment: xn = mol fraction of the nth substance listed

CCCCCC[n+]1ccn(C)c1C.O=S(=O)([N-]S(=O)(=O)C(F)(F)F)C(F)(F)F + COCCOCCOCCOCCOC
viscosity [mPa·s], 100 kPa
Conditions	293.15 K	298.15 K	308.15 K
x2 = 0	–	129	–
x2 = 0.102	135	103	64
x2 = 0.306	66	51	–

CCO + COP(=O)([O-])OC.C[N+]1(CCO)CCCC1
Conditions	viscosity [mPa·s]
298.15 K, 100 kPa, x2 = 0	1.08

CCO + COP(=O)([O-])OC.Cn1cc[n+](C)c1
100 kPa, x2 = 0
Conditions	viscosity [mPa·s]
298.15 K	1.08
308.15 K	0.89
328.15 K	0.646

CCO + CS(=O)(=O)[O-].C[N+](C)(CCO)CCO
101 kPa, x2 = 0
Conditions	viscosity [mPa·s]
298.15 K	1.102
303.15 K	1.002
308.15 K	0.915
313.15 K	0.837
318.15 K	0.768
323.15 K	0.706

CC(=O)[O-].CC[NH2+]CC + CS(C)=O
101 kPa
Conditions	electrical conductivity [S/m]	viscosity [mPa·s]
298.15 K, x1 = 0.0079	0.066	–
298.15 K, x1 = 0.0285	0.157	–
298.15 K, x1 = 0.0475	0.217	–
298.15 K, x1 = 0.0697	0.282	–
298.15 K, x1 = 0.0998	0.348	–
298.15 K, x1 = 0.1	–	2.99
298.15 K, x1 = 0.199	–	3.72
298.15 K, x1 = 0.1997	0.44	–
298.15 K, x1 = 0.299	–	5.59
298.15 K, x1 = 0.3011	0.492	–
298.15 K, x1 = 0.3994	0.531	–
298.15 K, x1 = 0.4	–	8.01
298.15 K, x1 = 0.5	–	11.94
298.15 K, x1 = 0.5008	0.459	–
298.15 K, x1 = 0.601	–	15.88
298.15 K, x1 = 0.6022	0.433	–
298.15 K, x1 = 0.682	–	21.1
298.15 K, x1 = 0.7005	0.394	–
298.15 K, x1 = 0.798	–	32.6
298.15 K, x1 = 0.8019	0.367	–
298.15 K, x1 = 0.899	–	44.2
298.15 K, x1 = 0.9017	0.335	–
298.15 K, x2 = 0.005	–	58.3
298.15 K, x2 = 0.2023	–	13.67
298.15 K, x2 = 0.2814	–	12.66
298.15 K, x2 = 0.5897	–	8.7
298.15 K, x2 = 0.66	–	7.71
298.15 K, x2 = 0.7851	–	5.81
298.15 K, x2 = 0.971	–	2.53
303.15 K, x2 = 0.0253	–	13.36
303.15 K, x2 = 0.7253	–	5.92
303.15 K, x2 = 0.8406	–	4.41
303.15 K, x2 = 0.9248	–	3.13
308.15 K, x2 = 0.1535	–	10.52
308.15 K, x2 = 0.2814	–	9.46

CC[n+]1ccn(C)c1.CO[PH](=O)[O-] + CS(C)=O
298.1 K, 100 kPa
Conditions	electrical conductivity
x1 = 0.006	0.01 S/m
x1 = 0.01	0.13 S/m
x1 = 0.017	0.37 S/m and 0.45 S/m
x1 = 0.025	0.51 S/m and 0.68 S/m
x1 = 0.044	0.79 S/m
x1 = 0.059	0.93 S/m
x1 = 0.078	1.05 S/m
x1 = 0.123	1.15 S/m
x1 = 0.188	1.19 S/m
x1 = 0.267	1.13 S/m
x1 = 0.335	1.03 S/m
x1 = 0.453	0.88 S/m
x1 = 0.585	0.75 S/m
x1 = 0.763	0.59 S/m
x1 = 1	0.44 S/m
